Assay results published in patent US12037350B2, “Compositions and methods for the prevention and/or treatment of mitochondrial disease, including Friedreich's ataxia” (Stealth BioTherapeutics Inc., priority 2020, dated 2024).
“Also recorded” adds a separate entry of the source.

Assays:
[1] = system: frataxin deficient fibroblasts (GM03665) from Friedreich's ataxia patient; assay: Frataxin Deficient Fibroblast Viability Assay (BSO Assay); assay type: cell-based; details: for protection against BSO induced cell death (in words): BSO Assay, text statement; for EC50: Homo sapiens, Fibroblast, FA patient fibroblasts pretreated with compound, BSO 10 mM, MTT after 48 hrs
Experimental: Example 12: Frataxin Deficient Fibroblast Viability Assay (the “BSO Assay”)
This Example was used to evaluate the various new compositions for their potential efficacy in the treatment of Friedreich's Ataxia (FA or FRDA)—substantially as described in the above cited Reference (Matthias et al.).
The stock solutions of the test articles (and control compounds) were prepared in dimethyl sulfoxide (DMSO at 10 mM), Working stock solutions (2 times concentrated) were prepared on the day of the experiment in respective cell culture medium to be used for assay (detailed medium description below). A listing of compounds used as test articles in this Example 12 are found in Table 1, below.
A patient derived frataxin deficient fibroblast cell line was obtained from Coriell Institute. More specifically, the following cell lines/DNA samples were obtained from the NIGMS Human Genetic Cell Repository at the Coriell Institute for Medical Research: GM03665. To evaluate importance of various growth conditions on cell susceptibility to BSO toxicity cells were grown on:
MEM (Sigma-Aldrich) 15% Fetal Bovine Serum (FBS) without growth factors;
MEM (Sigma-Aldrich) 15% FBS with growth factors (Catalogue number 100-18B, Recombinant Human FGF-basic (154 a.a.) and catalogue number AF-100-15, Animal-Free Recombinant Human EGF from Peprotech);
MEM199/MEM EBS (Bioconcept Ltd.) 10% FBS, insulin 10 μg/ml, L-glutamine 2 mM with growth factors (Catalogue number 100-18B, Recombinant Human FGF-basic (154 a.a.) and catalogue number AF-100-15, Animal-Free Recombinant Human EGF from Peprotech).
To conduct an experiment, fibroblast cells (from all growth conditions) were seeded (100 μL (cells 3×10^3/well) on 96-well plates in MEM199/MEM EBS medium 10% FBS, insulin 10 μg/mL, L-glutamine 2 mM with growth factors and allowed to grow on plate for 24 hrs. After 24 hrs., media was removed and then test compounds of interest were added (100 μL, 2 times concentrated stock) to 96-well plates (end DM80 concentration not exceeding 0.5%) and incubated for 24 hours. Then L-buthionine-sulfoximine (BSO, from Acros Organics, Cat. No. 235520010) was added (100 μL, 2 times concentrated stock) at end concentrations ranging from 1 to 10 mM. Both test compounds and BSO were dissolved in MEM199/MEM EBS medium 10% FBS, insulin 10 μg/mL, L-glutamine 2 mM with growth factors. Cell viability was monitored and either after 24- or 48-hours cell viability was assayed by MTT (Thiazolyl blue tetrazolium bromide) assay. For the MTT assay, media was removed and 100 μL of MTT 1 mg/mL was added, incubated for 2 hours at +37° C., then medium was removed and 100 μL of isopropanol added to dissolve sediment. Absorption was measured at 570 (OD570) and 650 (QD650) nm wavelengths. Control cells (vehicle instead of BSO and compound) and vehicle control (with BSO, but vehicle instead of test compound) were treated in the same manner as ceils with BSO and compound. All cell media contained penicillin and streptomycin 100 U/mL each.
Absorption readouts were processed as follows: ValueΔ=ValueOD570−ValueOD650 and the obtained values were used to calculate cell viability as % of control cell (i.e., no BSO, no compound, just vehicle) viability.
Except as otherwise indicated in Table 1, all samples were run in at least 3 replicates for test compounds and at least 8 replicates for controls (i.e., both control (no BSO, no compound) and vehicle control (i.e., with BSO, no compound). Exact N per data points are indicated in the figures/table legends. Results for the compounds (test articles and controls) tested are listed in Table 1, below.
This is a cell-based assay measuring cytotoxicity which results from oxidative stress subsequent to depletion of endogenous glutathione defense mechanisms. The cells were primary Friedreich Ataxia (FA) patient fibroblasts which were incubated for 48 hrs. in BSO, an inhibitor of gamma glutamyl synthetase, an enzyme required for glutathione production. […]

[2] = system: HepG2 human hepatocarcinoma cells; assay: Rotenone ATP Assay (Complex I by-pass assay); assay type: cell-based
Experimental: Example 13: Rotenone ATP Assay (a Complex I by-Pass Assay)
This assay has been adapted from Haefeli R H, Erb M, Gemperli A C, Robay D, Courdier Fruh I, et al. (2011) NQO1-Dependent Redox Cycling of Idebenone: Effects on Cellular Redox Potential and Energy Levels. PLoS ONE 6(3): e17963. HepG2 human hepatocarcinoma cells are co-incubated with the electron transport chain complex I toxin rotenone +/− compounds of interest and the corresponding effect on ATP synthesis is measured with a bioluminescent substrate.
The stock solutions of the test articles (See Table 1, below for a list of the test articles examined using this assay) were prepared in dimethyl sulfoxide (DMSO at 10 mM). Working stock solutions were prepared on the day of the experiment in glucose free, serum free Dulbecco's modified Eagles medium (DMEM) supplemented with 50 micromolar rotenone.
In brief, HepG2 cells were plated at 25,000 cells per well in low glucose (1 gram/Liter) DMEM medium+10% fetal calf serum and incubated for 24 hours. The following day, the media was decanted and subsequently replaced with glucose free/serum free DMEM which has been supplemented with 50 micromolar rotenone and compound of interest. Serial dilutions of compound were prepared in 3× dilutions beginning at 25 micromolar. The cells were incubated for 60 minutes in a humidified tissue culture incubator. Following incubation, ATP levels were quantified via bioluminescent assay (Promega […] Glo Assay kit) and readings were captured on a standard microplate reader.
ATP bioluminescence is plotted versus the log of compound of interest and data are used to generate EC50 values. Curve fitting is performed using a sigmoidal dose response curve fit function (GraphPad Prism software).
EC50 values were derived from seven-point dose response curves performed on n=3 technical replicates per dose. Robustness of curve fit was assessed as a quality control measure, with an R squared value of at least 0.80 being required for a successful curve fit. Compounds of interest showing an increase in ATP bioluminescence relative to vehicle control were verified in an independent biological replicate of n=3 technical replicates per dose.
This assay is a direct measure of the ability of compounds of interest to restore ATP production under conditions of inhibition of Complex I of the mitochondrial electron transport chain. As the majority of ATP produced via the electron transport chain is thought to derive from Complex I activity, significant impairment in Complex I function has dire biological consequences. Of note, Complex I mutations are thought to drive pathophysiology in multiple mitochondrial diseases, including Leigh syndrome and Leber's Hereditary Optic Neuropathy (LHON), while diminished Complex I activity and the resultant attenuation of ATP production has been shown in neurodegenerative diseases, including Friedreich's Ataxia, Parkinson's Disease and Huntington's Disease. In brief, most compounds were tested in the Rotenone Oxygraph Assay instead of this assay but only Idebenone was active amongst Omaveloxolone, Idebenone and Vatiquinone.

Compound | protection against BSO induced cell death (in words) [1] | protection against BSO induced cell death (in words) ([1]; listed as omaveloxolone) | EC50 [1] | Complex I by-pass activity in Rotenone ATP Assay (in words) [2] | ATP Rotenone Assay EC50 ([2]; HepG2, 50 micromolar rotenone, 60 minutes, ATP bioluminescence) | EC50 ([2]; Homo sapiens, 1 h, HepG2, 50 micromolar rotenone, 60 minutes, ATP bioluminescence)
CC1(C)CC[C@]2(NC(=O)C(C)(F)F)CC[C@]3(C)[C@H](C(=O)C=C4[C@@]5(C)C=C(C#N)C(=O)C(C)(C)[C@@H]5CC[C@]43C)[C@@H]2C1 [Omaveloxolone, reference compound] | roughly equivalent in protection as compared with Vatiquinone | displayed anti-ferroptotic activity | 0.149 µM | inactive | Inactive | –
COC1=C(OC)C(=O)C(CCCCF)=C(C)C1=O [Compound J, 2-(4-fluorobutyl)-5,6-dimethoxy-3-methylcyclohexa-2,5-diene-1,4-dione] | not that effective | – | > 1 µM | not that effective | – | –
COC1=C(OC)C(=O)C(CCCCCCCCCC(F)(F)F)=C(C)C1=O [Compound C, 2,3-dimethoxy-5-methyl-6-(10,10,10-trifluorodecyl)cyclohexa-2,5-diene-1,4-dione] | best of the test compounds | – | 0.129 µM | effective in rescuing cells; also recorded: comparable to that of Idebenone | – | 1.44 µM
